The source of these data is US20260207563A1, “UREA COMPOUNDS AS ACTIVATORS OF POTASSIUM CHANNELS KV7.2/7.3 USEFUL IN THE TREATMENT OF CNS AND PNS DISORDERS” (ANGELINI PHARMA S.P.A., priority 2022, published 2026).

Molecules are shown by their SMILES.

The target of this experiment is T1, heteromeric KV7.2/KV7.3 channels (KCNQ2, KCNQ3) (Homo sapiens, UniProt O43525+O43526).
T1 construct: expressed in transfected cells; host or cells: CHO-K1
The experiment is described as follows: Automated patch-clamp (Sophion Qube 384) potency assay against KV7.2/KV7.3 channels. The experiment is classed as cell-based. The settings on record: CHO-K1/Kv7.2/Kv7.3 cells; for EC50: EC50 from concentration-response of shift in Vhalf, 10 concentrations up to 30 μM, read-out: Kv7.2/7.3 EC50; for Kv7.2/7.3 ΔV1/2: maximal shift in the Vhalf from the top of the curve. An excerpt:
Assessment of In Vitro Potency Against KV7.2/KV7.3 Channels
An automated patch-clamp assay on the Sophion Qube 384 was developed for potency testing to identify small molecule activators of heteromeric KV7.2/KV7.3 channels (KCNQ2, Uniprot ID 043526; KCNQ3, Uniprot 043525).
The cell line used was a stably transfected CHO-K1 cell line with constitutive KV7.2/KV7.3 expression.
CHO-K1/Kv7.2/Kv7.3 cells were maintained in the following culture media: • DMEM/F-12 with GlutaMAX™ (Gibco 31331-028), • 10% Fetal clone 2 serum (Perbio Science SH30066.03), • 1 mg/ml Geneticin™ selective antibiotic (G418, Invitrogen 1013027), and • 5 μg/ml BlasticidinS HCl (Invivogen Ant-bl-5).
On the day of the experiment, cells were resuspended in serum free media, counted and diluted to a final concentration of 3.5×10^6 cells per ml of media.
Cells were then placed onto the Sophion Qube 384 and rested for a minimum of 1 hour.
The following solutions were used for recording: • extracellular solution (in mM): 145 NaCl, 4 KCl, 1 MgCl2, 2 CaCl2), 10 HEPES, 10 glucose, pH 7.4, 315-320 mOsm. • intracellular solution (in mM): 120 KCl, 5.74 CaCl2), 1.75 MgCl2, 10 EGTA, 10 HEPES, 5 Na2ATP, pH 7.2, adjusted to 315 mOsm with sucrose.
After establishing the whole-cell configuration, cells were held at −80 mV throughout the experiment. A current-voltage (I-V) protocol stepping from −100 to +20 mV for 1 second was applied to measure Kv7.2/Kv7.3 currents, each step was followed by a 200 ms pulse to 0 mV to measure the tail currents. From the I-V protocol a Boltzmann fit was applied to generate activation curves. Data were sampled at 25 kHz and filtered at 5 kHz (Bessel). Data were produced using multihole QChips. The I-V protocol was applied several times to establish the response in control conditions (typically 0.3% DMSO) and in the presence of the test compound.
Data were reviewed in Sophion Analyser version 6.5.2 (Sophion Bioscience) for recording quality and filters were applied to remove any failed wells. Leak subtraction was applied to all recordings. Data filters for multihole QChips were typically: seal resistance>4 MΩ, capacitance >20 pF, baseline VHalf between 0 to −40 mV, baseline holding current between −2 to 2 nA, baseline steady state current at 20 mV >4 nA unless otherwise stated.
Analysis of Data for Assessment of Potency
10 concentrations of test compounds were applied to individual wells in quadruplicate to assess potency as a 1 in 3 dilution series from the maximal concentration of 30 μM. The average shift in the voltage for half activation (Vhalf) for each concentration was used to generate concentration-response curves fitted with a 4-parameter logistic model to estimate the EC50 from the point of inflection of the curve and the maximal shift in the Vhalf from the top of the curve.
The lower the EC50 value, the higher the potency of the analyzed compound. The selectivity criteria is assigned on the basis of the maximal shift in the Vhalf at 30 μM. […] In Table 3, ND means that selectivity was not determined.
Background: In patch-clamp work, channel activity is measured electrically.

As for `Cc1cccc2c1OCC[C@@H]2NC(=O)NCc1ccnc(OCC(F)(F)F)c1` [Compound 185], the EC50 is 5.39 µM and the “Kv7.2/7.3 ΔV1/2” value is on record as 22.68 mV.
In the case of `O=C(NCc1ccnc(OCC(F)(F)F)c1)NC1(C(F)(F)F)COC1` [Compound 218], the EC50 turned out to be 8 µM and the “Kv7.2/7.3 ΔV1/2” value was 21.41 mV.
On the same counts, the results for `O=C(NCc1ccnc(OCC(F)(F)F)c1)N[C@@H]1COc2c(F)cccc21` [Compound 199] are 1.82 µM and 36.36 mV.
On the same counts, the results for `O=C(NCc1ccnc(OCC(F)(F)F)c1)N[C@H]1CCOc2cccc(F)c21` [Compound 189] are 2.72 µM and 32.95 mV.
On the same counts, the results for `O=C(NCc1ccnc(OCC(F)(F)F)c1)N[C@@H]1CCO[C@H]1c1ccc(F)cc1` [Compound 242] are 2.98 µM and 34.51 mV.
In the case of `COc1ccc2c(c1)[C@H](NC(=O)NCc1cc(O[C@H](C)C(F)(F)F)ncn1)CCO2` [Compound 209], the EC50 is 9.7 µM and the “Kv7.2/7.3 ΔV1/2” value is on record as 37.49 mV.
For the compound `O=C(NCc1ccnc(OCC(F)(F)F)c1)N[C@@H]1CCOc2ccc(F)cc21` [Compound 170], the EC50 worked out at 1.54 µM and the “Kv7.2/7.3 ΔV1/2” value amounted to 42.82 mV.
On the same counts, the results for `O=C(NCc1ccnc(OCC(F)(F)F)c1)N[C@@H]1COC2(CC2)C1` [Compound 235] are 6.22 µM and 21.79 mV.
As to `C[C@@H](Oc1cc(CNC(=O)N[C@@H]2COc3ccccc32)ncn1)C(F)(F)F` [Compound 207], the EC50 came out at 10.2 µM and the “Kv7.2/7.3 ΔV1/2” value is on record as 23.90 mV.
The like results for `Cc1cccc2c1[C@@H](NC(=O)NCc1ccnc(OCC(F)(F)F)c1)CC2` [Compound 169] were, in that order, 1.4 µM and 24.08 mV.
On the same counts, the results for `O=C(NCc1ccnc(OCC(F)(F)F)c1)N[C@@H]1COc2ccccc2C1` [Compound 186] are 0.29 µM and 34.07 mV.
The like results for `O=C(NCc1ccnc(OCC(F)(F)F)c1)N[C@H]1COC[C@H]1c1ccc(F)cc1` [Compound 220] were, in that order, 11.8 µM and 29.83 mV.
`O=C(NCc1ccnc(OCC(F)(F)F)c1)N[C@H]1COC[C@@H]1c1ccc(F)cc1` [Compound 230]: the EC50 worked out at 1.77 µM and the “Kv7.2/7.3 ΔV1/2” value is 20.02 mV.
Take `O=C(NCc1ccnc(OCC(F)(F)F)c1)N[C@@H]1CCO[C@@H](c2ccccc2)C1` [Compound 195]: the EC50 was 6.67 µM and the “Kv7.2/7.3 ΔV1/2” value was 39.68 mV.
On the same counts, the results for `COc1ccc([C@H](CF)NC(=O)NCc2ccnc(OCC(F)(F)F)c2)cc1` [Compound 215] are 4.17 µM and 24.17 mV.
`O=C(NCc1ccnc(OCC(F)(F)F)n1)N[C@@H]1CCc2ccccc21` [Compound 171]: the EC50 was 1.24 µM and the “Kv7.2/7.3 ΔV1/2” value is given as 48.06 mV.
The like results for `O=C(NCc1ccnc(OCC(F)(F)F)c1)N[C@@H]1CN(CC(F)(F)F)C[C@H]1c1ccccc1` [Compound 232] were, in that order, 1.43 µM and 23.95 mV.
On the same counts, the results for `C[C@@H](Oc1cc(CNC(=O)NCC23CC(F)(C2)C3)ncn1)C(F)(F)F` [Compound 244] are 7.59 µM and 26.21 mV.
Turning to `O=C(NCc1ccnc(OCC(F)(F)F)c1)N[C@H]1C[C@H]2CC[C@@H]1O2` [Compound 236], the EC50 stood at 11.9 µM and the “Kv7.2/7.3 ΔV1/2” value is given as 31.52 mV.
On the same counts, the results for `O=C(NCCC1(C(F)(F)F)CC1)NCc1ccnc(OCC2CC2(F)F)c1` (centres unmarked) [Compound 250] are 2.58 µM and 21.04 mV.
The like results for `O=C(NCc1ccnc(OCC(F)(F)F)c1)N[C@@H]1CCCc2cc(F)ccc21` [Compound 191] were, in that order, 1.17 µM and 46.54 mV.
For `O=C(NCc1ccnc(OCC(F)(F)F)n1)N[C@@H]1CCCc2ccccc21` [Compound 180], the EC50 was 5.83 µM and the “Kv7.2/7.3 ΔV1/2” value was found to be 24.71 mV.
